# Laboratory results taken from the supplement of paper PMC11208160.
# Assay: recombinant UMI read abundance after kanamycin selection (control-corrected) (log10(CPM+1)); higher = more efficient recombination; extreme values may be limits of the assay; sequences stand for … in AGTGCAGAGAAAATCGGCCAGTTTTCTCTGCCTGCAGTCCGCATGCCGTGGGACCCCTTGGGTTCTAACCTGTTGCCTAGATTTATGCAGCGGACTGCCTTTCTCCCAAAGTGATAAACCGG…AGGTTGGTTTCACT; site = the 11-nt donor
# Method in brief: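 Sequenced counts of recombinant UMIs were turned into CPM, averaged across replicates and scaled with control-derived factors. The reported figure is log10(CPM+1). Those UMIs, each 12 nt long, tagged donor and donor-binding-loop pairs on a plasmid with a promoterless kanamycin gene, screened as a pool in Escherichia coli with IPTG (0.07 mM) plus kanamycin or without selection.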
# 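Note: IS621 bridge recombinase in Escherichia coli cells against a fixed T5 target plasmid.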
row,Sequence,recombinant UMI read abundance (log10)
1,TAGCCTTCATGGACCGGTTTTCCCGGTAATCCGTATTTGGT (site TCGCCTTCTAC),0.0137
2,TAGCCTTCATGGACCGGTTTTCCCGGTAATCCGTATTTGGT (site TGGCCTTCTAC),0
3,TAGCCTTCATGGACCGGTTTTCCCGGTAATCCGTATTTGGT (site TTGCCTTCTAC),0.0116
4,TAGCGAGCATGGACCGGTTTTCCCGGTAATCCGTATTTGTC (site TAGCGAGCTGA),2.41
5,TAGCGCTCATGGACCGGTTTTCCCGGTAATCCGTATTTGCA (site TAGCGCTCTTG),2.33
6,TAGCGTTCATGGACCGGTTTTCCCGGTAATCCGTATTTGGT (site TAGCATTCTAC),0.538
7,TAGCGTTCATGGACCGGTTTTCCCGGTAATCCGTATTTGGT (site TAGCCTTCTAC),0.00546
8,TAGCGTTCATGGACCGGTTTTCCCGGTAATCCGTATTTGGT (site TAGCGTTCTAC),1.12
9,TAGCGTTCATGGACCGGTTTTCCCGGTAATCCGTATTTGGT (site TAGCTTTCTAC),0
10,TAGCTAGCATGGACCGGTTTTCCCGGTAATCCGTATTTGAT (site TAGCTAGCTAT),1.59
11,TAGCTAGCATGGACCGGTTTTCCCGGTAATCCGTATTTGAT (site TAGCTAGCTCT),0.0164
12,TAGCTAGCATGGACCGGTTTTCCCGGTAATCCGTATTTGAT (site TAGCTAGCTGT),0
13,TAGCTAGCATGGACCGGTTTTCCCGGTAATCCGTATTTGAT (site TAGCTAGCTTT),0.0212
14,TAGCTAGCATGGACCGGTTTTCCCGGTAATCCGTATTTGCA (site TAGCTAGCTTA),0.178
15,TAGCTAGCATGGACCGGTTTTCCCGGTAATCCGTATTTGCA (site TAGCTAGCTTC),0.00756
16,TAGCTAGCATGGACCGGTTTTCCCGGTAATCCGTATTTGCA (site TAGCTAGCTTG),1.01
17,TAGCTAGCATGGACCGGTTTTCCCGGTAATCCGTATTTGCA (site TAGCTAGCTTT),0.0133
18,TAGCTAGCATGGACCGGTTTTCCCGGTAATCCGTATTTGTA (site TAGCTAGCTTA),1.62
19,TAGCTAGCATGGACCGGTTTTCCCGGTAATCCGTATTTGTA (site TAGCTAGCTTC),0.0102

row,Sequence,recombinant UMI read abundance (log10)
1,TAGCTAGCATGGACCGGTTTTCCCGGTAATCCGTATTTGTA (site TAGCTAGCTTG),0.789
2,TAGCTAGCATGGACCGGTTTTCCCGGTAATCCGTATTTGTA (site TAGCTAGCTTT),0.235
3,TAGCTCTCATGGACCGGTTTTCCCGGTAATCCGTATTTGGG (site TAGCTCTCTCC),0.00931
4,TAGGAATCATGGACCGGTTTTCCCGGTAATCCGTATTTGAG (site TAGGAATCTCA),2.32
5,TAGGAATCATGGACCGGTTTTCCCGGTAATCCGTATTTGAG (site TAGGAATCTCC),1.84
6,TAGGAATCATGGACCGGTTTTCCCGGTAATCCGTATTTGAG (site TAGGAATCTCG),1.36
7,TAGGAATCATGGACCGGTTTTCCCGGTAATCCGTATTTGAG (site TAGGAATCTCT),3.1
8,TAGGAATCATGGACCGGTTTTCCCGGTAATCCGTATTTGCG (site AAGGAATCTCG),2.07
9,TAGGAATCATGGACCGGTTTTCCCGGTAATCCGTATTTGCG (site CAGGAATCTCG),2.3
10,TAGGAATCATGGACCGGTTTTCCCGGTAATCCGTATTTGCG (site GAGGAATCTCG),0
11,TAGGAATCATGGACCGGTTTTCCCGGTAATCCGTATTTGCG (site TAAGAATCTCG),2.05
12,TAGGAATCATGGACCGGTTTTCCCGGTAATCCGTATTTGCG (site TACGAATCTCG),1.28
13,TAGGAATCATGGACCGGTTTTCCCGGTAATCCGTATTTGCG (site TAGAAATCTCG),2.39
14,TAGGAATCATGGACCGGTTTTCCCGGTAATCCGTATTTGCG (site TAGCAATCTCG),1.05
15,TAGGAATCATGGACCGGTTTTCCCGGTAATCCGTATTTGCG (site TAGGAAACTCG),1.27
16,TAGGAATCATGGACCGGTTTTCCCGGTAATCCGTATTTGCG (site TAGGAACCTCG),0
17,TAGGAATCATGGACCGGTTTTCCCGGTAATCCGTATTTGCG (site TAGGAAGCTCG),0.419
18,TAGGAATCATGGACCGGTTTTCCCGGTAATCCGTATTTGCG (site TAGGAATCTAG),1.42
19,TAGGAATCATGGACCGGTTTTCCCGGTAATCCGTATTTGCG (site TAGGAATCTCA),2.6

row,Sequence,recombinant UMI read abundance (log10)
1,TAGGAATCATGGACCGGTTTTCCCGGTAATCCGTATTTGCG (site TAGGAATCTCC),1.39
2,TAGGAATCATGGACCGGTTTTCCCGGTAATCCGTATTTGCG (site TAGGAATCTCG),2.72
3,TAGGAATCATGGACCGGTTTTCCCGGTAATCCGTATTTGCG (site TAGGAATCTCT),2.03
4,TAGGAATCATGGACCGGTTTTCCCGGTAATCCGTATTTGCG (site TAGGAATCTGG),2.08
5,TAGGAATCATGGACCGGTTTTCCCGGTAATCCGTATTTGCG (site TAGGAATCTTG),1.85
6,TAGGAATCATGGACCGGTTTTCCCGGTAATCCGTATTTGCG (site TAGGACTCTCG),0.892
7,TAGGAATCATGGACCGGTTTTCCCGGTAATCCGTATTTGCG (site TAGGAGTCTCG),1.94
8,TAGGAATCATGGACCGGTTTTCCCGGTAATCCGTATTTGCG (site TAGGATTCTCG),1.39
9,TAGGAATCATGGACCGGTTTTCCCGGTAATCCGTATTTGCG (site TAGGCATCTCG),1.14
10,TAGGAATCATGGACCGGTTTTCCCGGTAATCCGTATTTGCG (site TAGGGATCTCG),1.43
11,TAGGAATCATGGACCGGTTTTCCCGGTAATCCGTATTTGCG (site TAGGTATCTCG),1.63
12,TAGGAATCATGGACCGGTTTTCCCGGTAATCCGTATTTGCG (site TAGTAATCTCG),1.71
13,TAGGAATCATGGACCGGTTTTCCCGGTAATCCGTATTTGCG (site TATGAATCTCG),1.63
14,TAGGAATCATGGACCGGTTTTCCCGGTAATCCGTATTTGCG (site TCGGAATCTCG),1.51
15,TAGGAATCATGGACCGGTTTTCCCGGTAATCCGTATTTGCG (site TGGGAATCTCG),1.02
16,TAGGAATCATGGACCGGTTTTCCCGGTAATCCGTATTTGCG (site TTGGAATCTCG),1.47
17,TAGGAATCATGGACCGGTTTTCCCGGTAATCCGTATTTGCT (site TAGGAATCTAG),2.58
18,TAGGAATCATGGACCGGTTTTCCCGGTAATCCGTATTTGCT (site TAGGAATCTCG),1.1
19,TAGGAATCATGGACCGGTTTTCCCGGTAATCCGTATTTGCT (site TAGGAATCTGG),2.28
